Measurements from US11479604B2, “Immunomodulatory peptides and methods for modulating the immune system in a subject” (Recepta Biopharma S.A., priority 2017, dated 2022).
“Also recorded” adds a separate entry of the source.

Key:
[1] = test system: human monocyte-derived dendritic cells (mo-DC); assay: Membrane phenotype of human mo-DC from healthy donors; assay type: cell-based
Experimental: Peripheral blood mononuclear cells (PBMCs) were isolated by centrifugation over Ficoll-Paque Plus (GE Healthcare). After a 2 h-incubation in plastic 6-well plates, non-adherent cells were removed from culture and adherent cells (monocytes) were cultivated for 7 days in RPMI-1640 culture medium (Gibco, Grand Island, N.Y., USA), supplemented with 10% FCS (Gibco) plus antibiotic-antimycotic (Gibco) and in the presence of GM-CSF (50 ng/ml—Peprotech, Mexico) and IL-4 (50 ng/ml—Peprotech). At day 5 of culture TNF-α (50 ng/ml; Peprotech, Mexico) was added for mo-DC maturation.
Human cells were analyzed in a similar manner, but staining was performed in BSA-PBS, without EDTA. Antibodies against CD11c, CD14, CD80, CD83, CD86, HLA-ABC, HLA-DR, CCR7, PD-L1, conjugated with different fluorochromes and live/dead labeling (Molecular Probes, Oregon, USA) were used. Acquisition was performed in a FACSCanto II analyzer (BD Biosciences) and analyzed with the FlowJo Software X.10.07r2 (Tree Star).

B16F10-Nex2 melanoma = assay: Subcutaneous melanoma model; assay type: in vivo, C57BL/6 mice; settings: i.p. administration
Experimental: Male C57BL/6 mice, 6 to 8-week-old were obtained from the Center for Development of Experimental Models (CEDEME), Federal University of Sao Paulo (UNIFESP). For the in vivo metastatic model, C57BL/6 mice received one intravenous (i.v.) injection of 2×10^5 viable B16-F10-Next melanoma cells in 100 μL. […] The control group received 100 μL PBS. Twenty-two days later, mice (minimum n=3 per group) had their lungs harvested, and the number of macroscopic melanotic nodules were counted. The Ethical Committee of Federal University of São Paulo, Project no. 1234, 2011, approved all experiments with animals, according to International guidelines. For the subcutaneous model, mice were injected with 5×10^5 tumor cells suspended in 100 μL of PBS in the right flank via the subcutaneous route. The peptide (300 μg) was solubilized in 10 μL of distilled H2O and 90 μL of PBS and injected per mouse via the intraperitoneal route. The administration of the peptide was performed in 5 alternate days initiating one day after tumor challenge. Tumor longitudinal diameter (D) and transverse diameter (d) were measured every 2 days until the tumor volume reached 3,000 mm3. Animals were sacrificed when the allowed volume was reached. Volume was calculated using the formula v=Dd^2×0.52. […]

[2] = test system: human mo-DC co-cultured with allogeneic lymphocytes; assay: Allogeneic lymphocyte proliferation induced by mo-DC of healthy donors (CFSE); assay type: cell-based; settings: TNF, tumor lysate and peptide; mo-DC:lymphocyte 1:30
Experimental: Mo-DC were co-cultured with allogeneic lymphocytes (DC:Ly=1:30) to evaluate their ability to induce lymphocyte proliferation. This was measured by carboxyfluorescein succinimidyl ester (CFSE—Molecular Probes) dilution and activation measured by correlation among CD4/CD25 and Foxp3 expression (Clavijo-Salomon et al., 2016).
After two days in co-culture, the dilution of CFSE in lymphocytes was evaluated as a measurement of lymphocyte proliferation.

CD11c+ cells = assay: TGF-beta1 ELISA of CD11c+ cells from lymphoid organs of melanoma-bearing treated mice; assay type: in vivo, C57Bl6 mice; settings: 300 μg/dose i.p., day 17
Experimental: Animals were sacrificed on day 17 and their lungs, cervical and axillary lymph nodes and spleen were processed for examination. Lymph nodes and spleen were macerated separately, DMEM was added and passed through a cell strainer. CD11c+ cells were isolated using mouse CD11c+ beads and magnetic sorting. Cells were suspended in R10 medium and plated in […] at 10^6 cells/well. Cells were incubated for 24 h with or without tumor cell lysate (B16F10 stimulus). The supernatant was used in a TGF-beta1 ELISA test.

[3] = test system: bone marrow derived dendritic cells; assay: CD74 receptor expression in myeloid dendritic cells; assay type: cell-based, mouse; settings: murine dendritic cells
Experimental: After incubation the cells were stimulated with or without LPS (Sigma-Aldrich, Missouri, USA), at 200 ng/ml or tumor lysate (B16F10-Next cells) in the proportion of 30 DCs to 1 tumor cell, for 24 h. After incubation, the cells were harvested and stained with anti-CD74 (BV786) from BD Bioscience. Stained cells were acquired using LSRFortessa™ (Becton Dickinson, San Jose, Calif., USA) and data analysis was performed using the FlowJo V10 (TreeStar Inc., Ashland, Oreg., USA). The results are represented as percentage of CD74^+ cells in CD11b^+CD11c^+ or CD11c^+MHCII^+ population.
Protein lysates were separated by electrophoresis, and immunoblotting analyses were performed for: total AKT, total p44/42 MAPK (ERK1/2), total IKKα, total IkBα, total NF-kB p65, phospho-AKT (Ser473), phospho-ERK1/2 (Thr202/Tyr204), phospho-IKKα/β (Ser176/180), phospho-IkBα (Ser32) and phospho-NFkB p65 (Ser536). GAPDH was assayed for loading control. HRP-conjugated secondary antibodies were used, followed by incubation with the ECL substrate (Millipore, Billerica, Mass.). All primary and secondary antibodies were purchased from Cell Signaling Technologies (Beverly, Mass., USA). Anti-CD74 receptor was also assayed (Abcam, Cambridge, UK). Phosphorylation ratios were quantified using ImageJ software. Results are represented in arbitrary units normalized to untreated control lanes.

human mo-DC = assay: Expression of MIF receptor and co-receptors by human mo-DC; assay type: cell-based
Experimental: CD44 expression was evaluated by BV-421-labeled monoclonal antibodies and negative controls in the figure refer to unlabeled cells.
Negative controls in the figure refer to unlabeled cells.
The parameters included in the analysis were the expression of HLA-DR (BV-510 labeled mAb), PD-L1 (PE-labeled mAb), CD44 (BV-421-labeled mAb), CD74 (FITC-labeled mAb) and CXCR4 (PE-Cy5-labeled mAb).

[4] = test system: colorectal CT26 carcinoma cells; assay: Subcutaneous syngeneic colorectal carcinoma model; assay type: in vivo, Balb/c mice; settings: CT26 of moderate virulence (ATCC, CRL-2638); 300 μg i.p., 5 consecutive days

## [CARGETARATFAYWGQGC], NH2 (C-C) [Rb9]
[1]; 50 μg/mL at day 5, analysis 2 days later
  expression of activation markers on immature mo-DC: enhanced the expression of activation markers
[1]; 50 μg/mL peptide + TNF-alpha 50 ng/mL at day 5
  expression of maturation markers on mo-DC with TNF-alpha: further enhancing the expression of maturation markers
B16F10-Nex2 melanoma
  response of subcutaneous growing melanoma to peptide: much more resistant; also recorded: resistant
[2]
  lympho-stimulatory ability of mo-DC: further enhance the lympho-stimulatory ability
CD11c+ cells
  TGF-beta in tumor-lysate stimulated CD11c+ cells from the spleen: increased
CD11c+ cells; vs vehicle (PBS) control cells stimulated by melanoma lysate
  TGF-beta secreted by lymph node CD11c+ cells: greatly reduced
[3]
  expression of CD74 in CD11b+CD11c+ and CD11c+MHC-II+ cells: increased expression
Human mo-DC; LPS-stimulated human mo-DC
  CD74^lowCXCR4^low cell subpopulation (tSNE analysis): disappearance of a CD74^lowCXCR4^low cell subpopulation
Human mo-DC; LPS-stimulated human mo-DC, 16.7% without peptide
  expression of the MIF co-receptor CXCR4 after treatment: 28.2%
Human mo-DC; LPS-stimulated human mo-DC, 56.8% without peptide
  expression of the MIF receptor CD74 after treatment: 87.5%
Human mo-DC; TGF-beta+IL-10-treated human mo-DC
  reduction in CD44 intensity (MFI): 20%
Human mo-DC; TGF-beta+IL-10-treated human mo-DC, 57% without peptide
  frequency of CD44 positive cells after treatment: 52%
[4]
  subcutaneous tumor growth: significantly delayed
